From patent US6887878B2, “KMST isoeugenol derivatives and pharmaceutical activity” (Ing-Jun Chen, priority 2003, dated 2005) come the findings set out here.

Entries after “also recorded” stand apart in the source; their conditions may differ. Read-outs that look alike come from different tables or passages of the source. Bounds are passed on as bounds.

In assay [1] the target is T1, 5-HT2A receptor (Rattus norvegicus, UniProt P14842). Description: [3H]ketanserin receptor binding in rat cortex. More on the design: from tissue; host or cells: Wistar rat cortex membranes; species or system Wistar rat. On the procedure: (§1) The homogenate was pressure filtered through muslin. Filtrate was centrifuged at 1000 g for 10 min. […] Protein content was determined by Bradford's method.
T1 sequence (P14842 whole entry): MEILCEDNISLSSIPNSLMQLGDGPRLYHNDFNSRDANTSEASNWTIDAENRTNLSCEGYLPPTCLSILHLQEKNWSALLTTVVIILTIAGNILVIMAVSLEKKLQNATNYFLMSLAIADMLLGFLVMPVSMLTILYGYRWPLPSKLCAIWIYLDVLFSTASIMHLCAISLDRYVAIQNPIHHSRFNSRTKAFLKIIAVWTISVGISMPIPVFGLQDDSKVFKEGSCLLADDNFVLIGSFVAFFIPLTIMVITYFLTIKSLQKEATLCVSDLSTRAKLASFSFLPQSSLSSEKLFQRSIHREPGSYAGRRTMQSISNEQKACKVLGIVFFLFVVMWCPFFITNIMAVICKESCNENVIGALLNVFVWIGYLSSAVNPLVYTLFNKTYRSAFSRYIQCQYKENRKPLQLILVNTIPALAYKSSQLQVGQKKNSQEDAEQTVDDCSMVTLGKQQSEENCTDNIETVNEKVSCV

The target of assay [2] is T1, 5-HT2A receptor. Description: 5-HT-induced contraction in isolated rat thoracic aorta (pA2). Particulars: Schild plot, mean ± SEM of eight, listed as KMST. More on the design: Rat thoracic aorta was removed, cleaned of adhering fat and connective tissue; from tissue; host or cells: Wistar rat thoracic aorta rings; species or system Wistar rat. How it is done: (§2) Clonidine, noradrenaline and serotonin (10^−8˜10^−4 M) were added to the bath to induce contractions after pretreatment with KMST for 15 min.

Another assay relates to anesthetized rats. Description: LPS-induced hypotension. The class given is in vivo, Wistar rat. As to conditions: pretreatment, intravenous LPS. On the procedure:
(§3) In brief, Wistar rats weighing 250-300 g were anesthetized with pentobarbital sodium (50 mg kg^−1, i.p.). Following tracheal cannulation, systemic arterial BP and HR were recorded from the femoral artery by a pressure transducer (model P10EZ; Spectramed, Oxnard, Calif., U.S.A.) connected to a recorder (GOULD, Valley View, Ohio, Model P50). Body temperature was maintained at 37° C. by an electric heating pad. A femoral vein was cannulated for intravenous injection of drugs and LPS (10 mg kg^−1).

The target in the next assay is T2, 5-HT re-uptake (Rattus norvegicus, UniProt P31652).
T2 construct: the cerebral cortex or striatum was dissected and crude synaptosomes were prepared; from tissue; host or cells: crude synaptosomes of Wistar rat cerebral cortex
T2 sequence (P31652 whole entry): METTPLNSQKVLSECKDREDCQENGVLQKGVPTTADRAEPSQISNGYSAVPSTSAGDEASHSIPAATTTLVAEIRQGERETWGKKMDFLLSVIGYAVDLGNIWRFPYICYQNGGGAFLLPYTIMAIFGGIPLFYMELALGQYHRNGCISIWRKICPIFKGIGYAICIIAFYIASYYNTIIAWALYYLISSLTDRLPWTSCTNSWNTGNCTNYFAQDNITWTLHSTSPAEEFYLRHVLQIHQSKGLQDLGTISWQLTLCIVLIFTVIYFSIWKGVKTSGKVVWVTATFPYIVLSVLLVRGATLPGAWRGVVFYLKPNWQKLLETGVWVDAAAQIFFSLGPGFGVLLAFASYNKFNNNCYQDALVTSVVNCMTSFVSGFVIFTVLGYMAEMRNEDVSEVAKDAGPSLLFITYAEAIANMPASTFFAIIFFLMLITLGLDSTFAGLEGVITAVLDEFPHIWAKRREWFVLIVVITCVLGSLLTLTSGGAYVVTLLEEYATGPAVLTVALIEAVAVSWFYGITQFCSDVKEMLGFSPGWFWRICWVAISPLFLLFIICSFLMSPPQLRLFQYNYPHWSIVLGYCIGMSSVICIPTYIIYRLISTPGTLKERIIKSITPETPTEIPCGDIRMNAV
Description: 5-HT re-uptake in cerebral cortex synaptosomes. The class given is biochemical, Wistar rat. Particulars: read-out: IC50 of 5-HT uptake inhibition. On the procedure: Wistar rats weighting 150-200 g were decapitated, the cerebral cortex or striatum was dissected and crude synaptosomes were prepared. […] Uptake was initiated by the addition of 50 μl of [^3H] […] Saline was added to the incubation mixture, which was then filtered through a Whatman GF/B glass filter under reduced pressure. To determine nonspecific uptake, incubation was performed at 0° C.

Another assay has as its target T3, β1 receptors (Rattus norvegicus, UniProt P18090).
T3 construct: from tissue; host or cells: Wistar rat heart (ventricle) membranes
Description: [3H]CGP-12177 receptor binding in rat ventricle. More on the design: species or system Wistar rat. As to conditions: [3H]CGP-12177, rat ventricle. On the procedure:
as §1

The nature of assay [3]: LPS-induced blood glucose changes. Format: in vivo, rat. On the procedure:
as §3
(§4) Blood was collected from venous cannula, injected into ice-cold heparinized Eppendorf tubes and centrifuged at 1500 rpm for 10 min at 4° C. Plasma supernatant was stored at −70° C. until analyzed. Solid phase enzyme immunoassay that specifically detects murine IL-1β, IL-6, IFN-γ and TNF-α was used with a detection limit of >10 pg/ml (Endogen, U.S.A). Pre-treatment with KMST and other agents was performed 15 minutes before intravenous injection of LPS. Blood was collected from venous cannula. Blood glucose was measured with a glucose test strip (Glucotide, Bayer, U.S.A) at 1, 3 and 5 hours.

Assay [4] concerns phenylephrine-induced contractions in rat thoracic aorta. Description: LPS-induced vascular hyporeactivity: phenylephrine-induced contractions in rat thoracic aorta. Particulars: for pD2 at 3rd hr / pD2 at 5th hr: pD2 to phenylephrine. The class given is in vivo, Wistar rat.
Assay [5] deals with pentobarbital-anesthetized rats. Description: intravenous injection in pentobarbital-anesthetized rats, BP and HR. The class given is in vivo, Wistar rat. Particulars: intravenous administration. How it is done:
as §3

The target of the next assay is α1 receptors. Description: [3H]prazosin receptor binding in rat cortex. Further details: species or system Wistar rat. On the procedure:
as §1

Another assay has as its system α1-adrenergic receptor. Description: noradrenaline-induced contraction in isolated rat thoracic aorta (pA2). Further details: species or system Wistar rat. Particulars: Schild plot, mean ± SEM of eight, listed as KMST. On the procedure:
as §2

A further assay has as its target α2 receptors. Description: [3H]yohimbine receptor binding in rat cortex. Further details: species or system Wistar rat. How it is done: as §1
In another assay the target is M2. Description: M2 receptor binding. Further details: species or system guinea pig.
For another assay, the system named is α2-adrenergic receptor. Description: clonidine-induced contraction in isolated rat thoracic aorta (pA2). Particulars: Schild plot, mean ± SEM of eight, listed as KMST. Further details: species or system Wistar rat. On the procedure: as §2
The test system of assay [6] is IL-1β, IL-6, IFN-γ and TNF-α. Description: LPS-induced plasma cytokine immunoreactivity. The class given is in vivo, rat. As to conditions: 1 mg kg−1, i.v., pretreatment. On the procedure:
as §3, §4

For assay [7], the system named is epinephrine-induced human platelet aggregation. Description: epinephrine-induced human platelet aggregation. The class given is cell-based. Particulars: epinephrine 5 μM, PRP. On the procedure:
Venous blood from human volunteer donors was collected in 10 ml Monovette containing 1 ml citrate solution (0.106M trisodium citrate; Sarstedt, Nümbrecht, Germany) and centrifuged (400 g, 10 min, 20° C.). […] After centrifugation (10 min, 2000 g, 20° C.), the platelet pellet was resuspended in wishing buffer (113 mM NaCl, 4 mM Na2HPO4, 24 mM NaH2PO4, 4 mM KCl, 0.2 mM EGTA(Ethylene glycol-bis-(2-aminoethyl ether) N,N,N′-tetraacetic acid), 0.1% (wt/vol) glucose, pH 6.0) and recentrifuged (10 min, 2000 g, 20° C.). The washed platelets were resuspended in incubation buffer (134 mM NaCl, 12 mM NaHCO3, 2.9 mM KCl, 0.34 mM NaH2PO4, 5 mM HEPES (N-(2-hydroxyethyl) piperazine-N′-(2-ethanesulfonic acid)), 5 mM glucose, pH7.4), cells were counted in a Sysmex hematology analyzer (Sysmex, CDA-500, Japan) and adjusted to a final concentration of 2×10^8 platelets/ml.
The aggregation of the platelets in platelet-rich plasma (PRP) was measured as a change in light absorbance by a Payton dual-channel aggregometer (NBS, Hema tracer, Japan). PRP (240 μL) was stirred (700 rpm) at 37° C. for 1 min, and 5 μL epinephrine (final concentration 5 μM), serotonin (final concentration 5 μM) was added. After which the rate of primary aggregation (1/min) and maximum aggregation (%) at 5 min were recorded. To study the effects of compounds on epinephrine or serotonin-induced aggregation, PRP was incubated with 5 μL of compounds at various concentrations for 1 min before epinephrine or serotonin was added. IC50 values given were calculated from the secondary aggregation data.

Another assay addresses T4, β2 receptors (Rattus norvegicus, UniProt P10608).
T4 construct: from tissue; host or cells: Wistar rat lung membranes
Description: [3H]CGP-12177 receptor binding in rat lung. More on the design: species or system Wistar rat. Particulars: [3H]CGP-12177, rat lung. On the procedure:
as §1

The mark [8] stands for this setting: agent given after LPS injection (1 hr).
Where [9] appears, read: agent given before LPS injection (30 min).

T3 sequence (P18090 whole entry): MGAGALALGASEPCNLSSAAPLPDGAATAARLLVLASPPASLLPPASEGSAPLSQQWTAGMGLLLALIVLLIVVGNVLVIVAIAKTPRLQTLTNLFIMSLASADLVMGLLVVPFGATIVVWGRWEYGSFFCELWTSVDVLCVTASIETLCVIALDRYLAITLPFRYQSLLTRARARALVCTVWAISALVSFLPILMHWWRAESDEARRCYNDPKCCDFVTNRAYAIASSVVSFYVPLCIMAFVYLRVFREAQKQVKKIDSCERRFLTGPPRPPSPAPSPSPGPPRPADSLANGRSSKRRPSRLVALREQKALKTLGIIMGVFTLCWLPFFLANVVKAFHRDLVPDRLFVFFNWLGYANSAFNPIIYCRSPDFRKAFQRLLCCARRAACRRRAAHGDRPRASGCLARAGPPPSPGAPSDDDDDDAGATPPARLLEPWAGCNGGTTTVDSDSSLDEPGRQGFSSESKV
T4 sequence (P10608 whole entry): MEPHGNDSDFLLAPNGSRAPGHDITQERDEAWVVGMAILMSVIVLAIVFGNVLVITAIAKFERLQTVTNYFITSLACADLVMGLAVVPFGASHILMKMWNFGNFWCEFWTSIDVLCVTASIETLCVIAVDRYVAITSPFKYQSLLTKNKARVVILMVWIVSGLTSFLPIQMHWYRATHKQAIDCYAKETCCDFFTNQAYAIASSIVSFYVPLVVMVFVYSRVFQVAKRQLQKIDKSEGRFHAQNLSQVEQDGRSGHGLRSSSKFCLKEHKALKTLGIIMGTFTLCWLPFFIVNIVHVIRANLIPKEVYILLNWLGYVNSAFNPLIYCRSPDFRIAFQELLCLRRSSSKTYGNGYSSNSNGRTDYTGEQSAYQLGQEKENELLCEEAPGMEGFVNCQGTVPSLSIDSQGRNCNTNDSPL

In the case of `CC=Cc1ccc(OCC(O)CN2CCN(c3cccc(Cl)c3)CC2)c(OC)c1` (centres unmarked) [Compound 1], the Ki at 5-HT2A receptor [1] was 33.3 nM; on β1 receptors it was 72.8 nM; at α1 receptors it was 142 nM; on α2 receptors, 1840 nM; at α2 receptors (listed as KMST), 1390 nM; on M2, more than 10 µM. This molecule also returned a Ki on β2 receptors of more than 10 µM. In addition, the “5-HT2A pA2 value” at 5-HT2A receptor [2] amounted to 8.68±0.12. In the assay on anesthetized rats, the “aortic hyporeactivity and second prolonged hypotensive reaction induced by LPS” value is reported as “inhibited”. Besides, the values for the 50% inhibitory concentration (IC50) (on 5-HT re-uptake; in assay [7]) were 34.3 µM and 2780 nM, respectively. Further, the LPS-induced early hyperglycemia entry in assay [3] (at 1 and 3 hours) is given as “inhibited”. Besides, the LPS-induced hypoglycemia result in assay [3] (at 5 hours) was “did not affect”. Besides, the “aortic contractility of LPS-treated rats versus vehicle group” value in assay [4] (1 mg kg−1 i.v. before or after application of LPS, listed as KMST) is recorded as “improved the aortic contractility better than in vehicle group; also recorded: increased aortic contractility more than the vehicle group”. Besides, the “pD2 at 3rd hr” value in assay [4] (setting [8]) is listed as 6.29 ± 0.08; in assay [4] (setting [9]), 7.16 ± 0.18. The figures for the “pD2 at 5th hr” value in assay [4] (setting [8]) and in assay [4] (setting [9]) were 5.57 ± 0.17 and 6.29 ± 0.11, respectively. Moreover, the “mean BP and HR” value in assay [5] is “dose-dependent decrease”. Also, the “phenylephrine- and isoprenaline-induced changes in BP and HR” value in assay [5] was “inhibited”. Also, in the assay on α1-adrenergic receptor, the “α1 pA2 value” was 7.97±0.39. Further, the “α2 pA2 value” with α2-adrenergic receptor turned out to be 7.40±0.38. In assay [6], the “LPS-induced elevations of IL-1β, IL-6, IFN-γ and TNF-α levels” value is recorded as “inhibited”.
